# Experimental data as given in ChEMBL document CHEMBL2029328, “Identification and structure-activity relationships of a novel series of estrogen receptor ligands based on 7-thiabicyclo[2.2.1]hept-2-ene-7-oxide” (J Med Chem, 2012).
# Experiments:
# [1] = target: T1, Estrogen receptor (Homo sapiens) (UniProt P03372); assay: Displacement of [3H]estradiol from human ERalpha after 18 to 24 hrs
# T1 sequence (whole entry): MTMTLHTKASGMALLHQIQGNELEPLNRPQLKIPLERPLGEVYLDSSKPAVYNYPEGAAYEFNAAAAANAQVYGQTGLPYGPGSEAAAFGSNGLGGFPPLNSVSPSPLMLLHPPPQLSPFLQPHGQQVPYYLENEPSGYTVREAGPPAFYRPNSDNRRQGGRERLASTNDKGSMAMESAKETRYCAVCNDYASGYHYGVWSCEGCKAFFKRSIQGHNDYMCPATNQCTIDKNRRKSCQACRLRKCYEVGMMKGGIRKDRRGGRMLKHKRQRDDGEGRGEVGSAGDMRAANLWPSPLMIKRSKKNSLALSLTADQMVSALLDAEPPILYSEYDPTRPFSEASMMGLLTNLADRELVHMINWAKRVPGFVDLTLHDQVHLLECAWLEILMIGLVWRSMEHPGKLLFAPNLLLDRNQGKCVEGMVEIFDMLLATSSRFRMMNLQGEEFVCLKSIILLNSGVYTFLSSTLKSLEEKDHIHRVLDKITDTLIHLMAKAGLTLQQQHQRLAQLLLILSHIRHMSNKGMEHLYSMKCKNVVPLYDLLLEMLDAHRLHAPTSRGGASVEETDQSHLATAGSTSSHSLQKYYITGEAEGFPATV
# Estrogen receptor beta [2] = target: T2, Estrogen receptor beta (Homo sapiens, UniProt Q92731); assay: Displacement of [3H]estradiol from human ERbeta after 18 to 24 hrs
# T2 sequence (Q92731 whole entry): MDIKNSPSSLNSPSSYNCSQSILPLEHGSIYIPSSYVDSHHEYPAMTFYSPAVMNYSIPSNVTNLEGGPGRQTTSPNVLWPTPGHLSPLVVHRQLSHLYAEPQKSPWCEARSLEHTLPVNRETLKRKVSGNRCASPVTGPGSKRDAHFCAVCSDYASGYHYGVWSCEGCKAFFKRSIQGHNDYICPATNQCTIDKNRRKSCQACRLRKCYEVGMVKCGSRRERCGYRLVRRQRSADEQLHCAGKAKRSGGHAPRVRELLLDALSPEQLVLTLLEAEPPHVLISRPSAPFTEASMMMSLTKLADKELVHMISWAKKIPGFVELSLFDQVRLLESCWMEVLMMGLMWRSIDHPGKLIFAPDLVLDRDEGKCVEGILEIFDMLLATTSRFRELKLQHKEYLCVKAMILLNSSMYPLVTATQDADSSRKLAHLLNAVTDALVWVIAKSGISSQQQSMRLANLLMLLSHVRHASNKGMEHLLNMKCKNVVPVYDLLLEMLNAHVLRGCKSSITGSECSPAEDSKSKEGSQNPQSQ
# [3] = target: T1, Estrogen receptor (Homo sapiens); assay: Agonist activity at human ERalpha expressed in HepG2 cells up to 10^-5 M after 24 hrs by luciferase reporter gene assay relative to E2; type: functional, cell-based
# Estrogen receptor beta [4] = target: T2, Estrogen receptor beta; assay: Agonist activity at human ERbeta expressed in HepG2 cells up to 10^-5 M after 24 hrs by luciferase reporter gene assay relative to E2; type: functional, cell-based
# Estrogen receptor = target: T3, Estrogen receptor (Homo sapiens, UniProt P03372)
# T3 sequence (P03372 whole entry): T1 sequence (whole entry)
# Description: Agonist activity at human ERalpha expressed in HepG2 cells after 24 hrs by luciferase reporter gene assay
# Estrogen receptor beta [5] = target: T2, Estrogen receptor beta
# Description: Agonist activity at human ERbeta expressed in HepG2 cells after 24 hrs by luciferase reporter gene assay
Structure (SMILES),RBA [1] [%],RBA (Estrogen receptor beta [2]) [%],Activity [3] [%],Activity (Estrogen receptor beta [4]) [%],EC50 (Estrogen receptor) [nM],EC50 (Estrogen receptor beta [5]) [nM]
CCOC(=O)[C@@H]1[C@H](C(=O)OCC)[C@@H]2C(c3ccc(O)c(C)c3)=C(c3ccc(O)c(C)c3)[C@H]1[S+]2[O-] (some centres undefined),0.026,0.019,22,3.6,,
CCOC(=O)[C@@H]1[C@H](C(=O)OCC)[C@@H]2C(c3ccc(O)cc3)=C(c3ccc(O)cc3)[C@H]1[S+]2[O-] (some centres undefined),0.022,0.048,55,27,,
O=C1[C@@H]2[C@H](C(=O)N1c1ccccc1)[C@@H]1C(c3ccc(O)cc3)=C(c3ccc(O)cc3)[C@H]2[S+]1[O-] (mixture of isomers),0.017,0.013,31,24,7100,
Cc1cc(O)ccc1C1=C(c2ccc(O)cc2C)[C@H]2[C@H]3C(=O)N(c4ccccc4)C(=O)[C@H]3[C@@H]1[S+]2[O-] (mixture of isomers),0.016,0.014,65,82,150,800
Cc1cc(C2=C(c3ccc(O)c(C)c3)[C@H]3[C@H]4C(=O)N(c5ccccc5)C(=O)[C@H]4[C@@H]2[S+]3[O-])ccc1O (mixture of isomers),0.009,0.007,29,3.4,,
Cc1cc(C2=C(c3ccc(O)c(C)c3)[C@H]3[C@@H](S(=O)(=O)Oc4cccc5ccccc45)C[C@@H]2[S+]3[O-])ccc1O (relative stereo),0.236,0.019,42,10,770,
O=S(=O)(Oc1ccccc1)[C@H]1C[C@H]2C(c3ccc(O)cc3)=C(c3ccc(O)cc3)[C@@H]1[S+]2[O-] (relative stereo),0.956,0.11,85,3.4,670,
O=S(=O)(Oc1ccc(O)cc1)[C@H]1C[C@H]2C(c3ccc(O)cc3)=C(c3ccc(O)cc3)[C@@H]1[S+]2[O-] (relative stereo),0.077,0.071,48,10,1100,
Cc1cc(O)ccc1C1=C(c2ccc(O)cc2C)[C@H]2[C@@H](S(=O)(=O)Oc3ccccc3)C[C@@H]1[S+]2[O-] (relative stereo),8.11,0.348,62,66,0.14,
COc1ccc(OS(=O)(=O)[C@H]2C[C@H]3C(c4ccc(O)cc4C)=C(c4ccc(O)cc4C)[C@@H]2[S+]3[O-])cc1 (relative stereo),0.741,0.091,76,32,210,
Cc1cc(O)ccc1C1=C(c2ccc(O)cc2C)[C@H]2[C@@H](S(=O)(=O)Oc3ccccc3F)C[C@@H]1[S+]2[O-] (relative stereo),3.53,0.138,56,54,2.2,
Cc1cc(O)ccc1C1=C(c2ccc(O)cc2C)[C@H]2[C@@H](S(=O)(=O)Oc3ccccc3Cl)C[C@@H]1[S+]2[O-] (relative stereo),2.49,0.227,73,46,2.8,
Cc1cc(O)ccc1C1=C(c2ccc(O)cc2C)[C@H]2[C@@H](S(=O)(=O)Oc3ccccc3Br)C[C@@H]1[S+]2[O-] (relative stereo),2.21,0.07,67,21,14,
Cc1cc(O)ccc1C1=C(c2ccc(O)cc2C)[C@H]2[C@@H](S(=O)(=O)Oc3ccc(F)cc3)C[C@@H]1[S+]2[O-] (relative stereo),2.18,0.08,74,45,200,
Cc1cc(O)ccc1C1=C(c2ccc(O)cc2C)[C@H]2[C@@H](S(=O)(=O)Oc3ccc(Cl)cc3)C[C@@H]1[S+]2[O-] (relative stereo),2.13,0.083,67,50,110,
Cc1cc(O)ccc1C1=C(c2ccc(O)cc2C)[C@H]2[C@@H](S(=O)(=O)Oc3ccc(Br)cc3)C[C@@H]1[S+]2[O-] (relative stereo),3.37,0.297,71,100,110,
Cc1cc(O)ccc1C1=C(c2ccc(O)cc2C)[C@H]2[C@@H](S(=O)(=O)Oc3cccc4ccccc34)C[C@@H]1[S+]2[O-] (relative stereo),0.998,0.18,59,83,27,
Cc1cc(O)ccc1C1=C(c2ccc(O)cc2C)[C@H]2[C@@H](S(=O)(=O)Oc3ccc(O)cc3)C[C@@H]1[S+]2[O-] (relative stereo),2.21,0.812,58,82,9.2,
Cc1cc(C2=C(c3ccc(O)c(C)c3)[C@H]3[C@@H](S(=O)(=O)Oc4ccccc4)C[C@@H]2[S+]3[O-])ccc1O (relative stereo),3.49,0.014,65,3.8,12,
COc1ccc(OS(=O)(=O)[C@H]2C[C@H]3C(c4ccc(O)c(C)c4)=C(c4ccc(O)c(C)c4)[C@@H]2[S+]3[O-])cc1 (relative stereo),0.31,0.021,57,9.8,11000,
Cc1cc(C2=C(c3ccc(O)c(C)c3)[C@H]3[C@@H](S(=O)(=O)Oc4ccccc4F)C[C@@H]2[S+]3[O-])ccc1O (relative stereo),,0.01,55,0,1300,
Cc1cc(C2=C(c3ccc(O)c(C)c3)[C@H]3[C@@H](S(=O)(=O)Oc4ccccc4Cl)C[C@@H]2[S+]3[O-])ccc1O (relative stereo),1.18,0.022,72,0,2000,
Cc1cc(C2=C(c3ccc(O)c(C)c3)[C@H]3[C@@H](S(=O)(=O)Oc4ccccc4Br)C[C@@H]2[S+]3[O-])ccc1O (relative stereo),0.516,0.014,51,0,1200,
Cc1ccc(C2=C(c3ccc(C)cc3)[C@H]3[C@@H](S(=O)(=O)Oc4ccc(O)cc4)C[C@@H]2[S+]3[O-])cc1 (relative stereo),0.005,0.011,24,10,5500,
COc1ccc(OS(=O)(=O)[C@H]2C[C@H]3C(c4ccc(O)cc4)=C(c4ccc(O)cc4)[C@@H]2[S+]3[O-])cc1 (relative stereo),0.074,0.08,48,19,,
Cc1cc(C2=C(c3ccc(O)c(C)c3)[C@H]3[C@@H](S(=O)(=O)Oc4ccc(O)cc4)C[C@@H]2[S+]3[O-])ccc1O (relative stereo),0.109,0.009,,,,
Cc1cc(O)ccc1C1=C(c2ccc(O)cc2C)[C@H]2[C@@H](S(=O)(=O)Oc3cccc(Cl)c3)C[C@@H]1[S+]2[O-] (relative stereo),1.3,0.088,,,,
O=S(=O)(Oc1ccc(O)cc1)[C@H]1C[C@H]2C(c3ccccc3)=C(c3ccccc3)[C@@H]1[S+]2[O-] (relative stereo),0.005,0.008,22,0,,
